Laboratory results reported in patent US12077503B2, “Substituted cyclic amides and their use as herbicides” (FMC CORPORATION, priority 2015, dated 2024).

Legend:
Assay type in all cases: in vivo
[1] = system: pigweed (Amaranthus retroflexus); assay: Test A postemergence; settings: postemergence; for Pigweed plant response rating: 125 g ai/ha, visual injury rating on 0 to 100 scale (0 no effect, 100 complete control), approx. 10 d; for Plant response rating, Pigweed: 500 g ai/ha, 0 to 100 scale, 0 no effect, 100 complete control
In short: (§1)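 Treatment is preemergence as a directed soil spray after planting, or postemergence at the one- to two-leaf stage, with test chemical in a non-phytotoxic solvent mixture plus surfactant. Plants stay in the greenhouse about 10 d before visual injury scoring on a 0 to 100 scale versus untreated controls.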

[2] = system: blackgrass (Alopecurus myosuroides); assay: Test A postemergence; settings: postemergence; for Blackgrass plant response rating: 125 g ai/ha, visual injury rating on 0 to 100 scale (0 no effect, 100 complete control), approx. 10 d; for Plant response rating, Blackgrass: 500 g ai/ha, 0 to 100 scale, 0 no effect, 100 complete control
In short: as §1

corn (Zea mays) = assay: Test A postemergence; settings: postemergence; for Corn plant response rating: 125 g ai/ha, visual injury rating on 0 to 100 scale (0 no effect, 100 complete control), approx. 10 d; for Plant response rating, Corn: 500 g ai/ha, 0 to 100 scale, 0 no effect, 100 complete control
In short: as §1

[3] = system: ryegrass, Italian (Italian ryegrass, Lolium multiflorum); assay: Test A postemergence; settings: postemergence; for Ryegrass, Italian plant response rating: 125 g ai/ha, visual injury rating on 0 to 100 scale (0 no effect, 100 complete control), approx. 10 d; for Plant response rating, Ryegrass, Italian: 500 g ai/ha, 0 to 100 scale, 0 no effect, 100 complete control
In short: as §1

[4] = system: ragweed (common ragweed, Ambrosia elatior); assay: Test A postemergence; settings: postemergence; for Ragweed plant response rating: 125 g ai/ha, visual injury rating on 0 to 100 scale (0 no effect, 100 complete control), approx. 10 d; for Plant response rating, Ragweed: 500 g ai/ha, 0 to 100 scale, 0 no effect, 100 complete control
In short: as §1

[5] = system: wheat (Triticum aestivum); assay: Test A postemergence; settings: postemergence; for Wheat plant response rating: 125 g ai/ha, visual injury rating on 0 to 100 scale (0 no effect, 100 complete control), approx. 10 d; for Plant response rating, Wheat: 500 g ai/ha, 0 to 100 scale, 0 no effect, 100 complete control
In short: as §1

[6] = system: barnyardgrass (Echinochloa crus-galli); assay: Test A postemergence; settings: postemergence; for Barnyardgrass plant response rating: 125 g ai/ha, visual injury rating on 0 to 100 scale (0 no effect, 100 complete control), approx. 10 d; for Plant response rating, Barnyardgrass: 500 g ai/ha, 0 to 100 scale, 0 no effect, 100 complete control
In short: as §1

[7] = system: Galium (catchweed bedstraw, Galium aparine); assay: Test A postemergence; settings: postemergence; for Galium plant response rating: 125 g ai/ha, visual injury rating on 0 to 100 scale (0 no effect, 100 complete control), approx. 10 d; for Plant response rating, Galium: 500 g ai/ha, 0 to 100 scale, 0 no effect, 100 complete control
In short: as §1

Kochia (Kochia scoparia) [8] = assay: Test A postemergence; settings: postemergence; for Kochia plant response rating: 125 g ai/ha, visual injury rating on 0 to 100 scale (0 no effect, 100 complete control), approx. 10 d; for Plant response rating, Kochia: 500 g ai/ha, 0 to 100 scale, 0 no effect, 100 complete control
In short: as §1

[9] = system: giant foxtail (Setaria faberii); assay: Test A postemergence; settings: postemergence; for Foxtail, Giant plant response rating: 125 g ai/ha, visual injury rating on 0 to 100 scale (0 no effect, 100 complete control), approx. 10 d; for Plant response rating, Foxtail, Giant: 500 g ai/ha, 0 to 100 scale, 0 no effect, 100 complete control
In short: as §1

rice (Oryra sativa) = assay: Test B flooded paddy test; settings: Flood, 250 g ai/ha; 0 to 100 scale where 0 is no effect and 100 is complete control; 13 to 15 d
In short: (§2)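 Visual ratings (0 none to 100 complete control) are relative to untreated plants, taken 13–15 d after treatment in a greenhouse. Test material went straight into floodwater standing 3 cm above the soil, kept constant, on plants at the 2-leaf stage.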

[10] = system: sedge, umbrella (small-flower umbrella sedge, Cyperus difformis); assay: Test B flooded paddy test; settings: Flood, 250 g ai/ha; 0 to 100 scale where 0 is no effect and 100 is complete control; 13 to 15 d
In short: as §2

[11] = system: ducksalad (Heteranthera limosa); assay: Test B flooded paddy test; settings: Flood, 250 g ai/ha; 0 to 100 scale where 0 is no effect and 100 is complete control; 13 to 15 d
In short: as §2

[12] = system: barnyardgrass (Echinochloa crus-galli); assay: Test B flooded paddy test; settings: Flood, 250 g ai/ha; 0 to 100 scale where 0 is no effect and 100 is complete control; 13 to 15 d
In short: as §2

[13] = system: pigweed (Amaranthus retroflexus); assay: Test A preemergence; settings: for Plant response rating, Pigweed: 125 g ai/ha, preemergence, 0 to 100 scale (0 no effect, 100 complete control); for Pigweed plant response rating (0 to 100 scale, 0 is no effect, 100 is complete control): Preemergence, 500 g ai/ha, visual injury approx. 10 d
[14] = system: ryegrass, Italian (Italian ryegrass, Lolium multiflorum); assay: Test A preemergence; settings: for Plant response rating, Ryegrass, Italian: 125 g ai/ha, preemergence, 0 to 100 scale (0 no effect, 100 complete control); for Ryegrass, Italian plant response rating (0 to 100 scale, 0 is no effect, 100 is complete control): Preemergence, 500 g ai/ha, visual injury approx. 10 d
In short: as §1

[15] = system: ragweed (common ragweed, Ambrosia elatior); assay: Test A preemergence; settings: for Plant response rating, Ragweed: 125 g ai/ha, preemergence, 0 to 100 scale (0 no effect, 100 complete control); for Ragweed plant response rating (0 to 100 scale, 0 is no effect, 100 is complete control): Preemergence, 500 g ai/ha, visual injury approx. 10 d
In short: as §1

[16] = system: barnyardgrass (Echinochloa crus-galli); assay: Test A preemergence; settings: for Plant response rating, Barnyardgrass: 125 g ai/ha, preemergence, 0 to 100 scale (0 no effect, 100 complete control); for Barnyardgrass plant response rating (0 to 100 scale, 0 is no effect, 100 is complete control): Preemergence, 500 g ai/ha, visual injury approx. 10 d
In short: as §1

Kochia (Kochia scoparia) [17] = assay: Test A preemergence; settings: for Plant response rating, Kochia: 125 g ai/ha, preemergence, 0 to 100 scale (0 no effect, 100 complete control); for Kochia plant response rating (0 to 100 scale, 0 is no effect, 100 is complete control): Preemergence, 500 g ai/ha, visual injury approx. 10 d
In short: as §1

[18] = system: giant foxtail (Setaria faberii); assay: Test A preemergence; settings: for Plant response rating, Foxtail, Giant: 125 g ai/ha, preemergence, 0 to 100 scale (0 no effect, 100 complete control); for Foxtail, Giant plant response rating (0 to 100 scale, 0 is no effect, 100 is complete control): Preemergence, 500 g ai/ha, visual injury approx. 10 d
In short: as §1

CC(=O)Oc1cccc(C2CNC(=O)C2C(=O)Nc2cccc(F)c2F)c1 (stereo not drawn) [Compound 432]
15: Plant response rating, Rice (rice (Oryra sativa))
30: Plant response rating, Barnyardgrass [6] | Plant response rating, Foxtail, Giant [9] | Plant response rating, Barnyardgrass [16]
20: Plant response rating, Ryegrass, Italian [3] | Barnyardgrass plant response rating [6] | Plant response rating, Barnyardgrass [12]
40: Foxtail, Giant plant response rating [9] | Barnyardgrass plant response rating (0 to 100 scale, 0 is no effect, 100 is complete control) [16]
0: Pigweed plant response rating [1] | Plant response rating, Pigweed [1] | Blackgrass plant response rating [2] | Plant response rating, Blackgrass [2] | Corn plant response rating (corn (Zea mays)) | Plant response rating, Corn (corn (Zea mays)) | Ryegrass, Italian plant response rating [3] | Ragweed plant response rating [4] | Plant response rating, Ragweed [4] | Wheat plant response rating [5] | Plant response rating, Wheat [5] | Galium plant response rating [7] | Plant response rating, Galium [7] | Kochia plant response rating (Kochia (Kochia scoparia) [8]) | Plant response rating, Kochia (Kochia (Kochia scoparia) [8]) | Plant response rating, Sedge, Umbrella [10] | Plant response rating, Ducksalad [11] | Plant response rating, Pigweed [13] | Pigweed plant response rating (0 to 100 scale, 0 is no effect, 100 is complete control) [13] | Plant response rating, Ryegrass, Italian [14] | Ryegrass, Italian plant response rating (0 to 100 scale, 0 is no effect, 100 is complete control) [14] | Plant response rating, Ragweed [15] | Ragweed plant response rating (0 to 100 scale, 0 is no effect, 100 is complete control) [15] | Plant response rating, Kochia (Kochia (Kochia scoparia) [17]) | Kochia plant response rating (0 to 100 scale, 0 is no effect, 100 is complete control) (Kochia (Kochia scoparia) [17]) | Plant response rating, Foxtail, Giant [18] | Foxtail, Giant plant response rating (0 to 100 scale, 0 is no effect, 100 is complete control) [18]

CN1CC(c2ccc(Cl)cc2)C(C(=O)Nc2ccccc2S(C)(=O)=O)C1=O (stereo not drawn) [Compound 435]
20: Pigweed plant response rating [1] | Plant response rating, Corn (corn (Zea mays)) | Kochia plant response rating (Kochia (Kochia scoparia) [8]) | Ryegrass, Italian plant response rating (0 to 100 scale, 0 is no effect, 100 is complete control) [14] | Plant response rating, Ragweed [15]
80: Barnyardgrass plant response rating [6] | Foxtail, Giant plant response rating [9] | Plant response rating, Foxtail, Giant [9] | Pigweed plant response rating (0 to 100 scale, 0 is no effect, 100 is complete control) [13] | Plant response rating, Barnyardgrass [16] | Kochia plant response rating (0 to 100 scale, 0 is no effect, 100 is complete control) (Kochia (Kochia scoparia) [17])
60: Plant response rating, Ragweed [4] | Plant response rating, Wheat [5] | Plant response rating, Galium [7] | Plant response rating, Barnyardgrass [12] | Plant response rating, Pigweed [13] | Plant response rating, Kochia (Kochia (Kochia scoparia) [17])
40: Ryegrass, Italian plant response rating [3] | Plant response rating, Ryegrass, Italian [3] | Ragweed plant response rating [4]
0: Corn plant response rating (corn (Zea mays)) | Wheat plant response rating [5] | Plant response rating, Rice (rice (Oryra sativa)) | Plant response rating, Sedge, Umbrella [10] | Plant response rating, Ryegrass, Italian [14]
90: Plant response rating, Barnyardgrass [6] | Plant response rating, Ducksalad [11] | Barnyardgrass plant response rating (0 to 100 scale, 0 is no effect, 100 is complete control) [16] | Plant response rating, Foxtail, Giant [18] | Foxtail, Giant plant response rating (0 to 100 scale, 0 is no effect, 100 is complete control) [18]
50: Plant response rating, Pigweed [1] | Plant response rating, Blackgrass [2] | Galium plant response rating [7] | Plant response rating, Kochia (Kochia (Kochia scoparia) [8])
30: Blackgrass plant response rating [2]
70: Ragweed plant response rating (0 to 100 scale, 0 is no effect, 100 is complete control) [15]

CN1CC(c2ccc(Cl)cc2)C(C(=O)Nc2ccc(F)cc2F)C1=O (stereo not drawn) [Compound 436]
100: Plant response rating, Ducksalad [11] | Barnyardgrass plant response rating (0 to 100 scale, 0 is no effect, 100 is complete control) [16] | Foxtail, Giant plant response rating (0 to 100 scale, 0 is no effect, 100 is complete control) [18]
60: Plant response rating, Pigweed [1] | Galium plant response rating [7] | Plant response rating, Galium [7] | Plant response rating, Barnyardgrass [12] | Ryegrass, Italian plant response rating (0 to 100 scale, 0 is no effect, 100 is complete control) [14]
70: Plant response rating, Kochia (Kochia (Kochia scoparia) [8]) | Plant response rating, Kochia (Kochia (Kochia scoparia) [17])
0: Corn plant response rating (corn (Zea mays)) | Ragweed plant response rating [4] | Plant response rating, Rice (rice (Oryra sativa)) | Plant response rating, Sedge, Umbrella [10] | Plant response rating, Ragweed [15]
80: Foxtail, Giant plant response rating [9] | Plant response rating, Pigweed [13] | Kochia plant response rating (0 to 100 scale, 0 is no effect, 100 is complete control) (Kochia (Kochia scoparia) [17])
40: Plant response rating, Blackgrass [2] | Plant response rating, Corn (corn (Zea mays)) | Plant response rating, Wheat [5] | Kochia plant response rating (Kochia (Kochia scoparia) [8]) | Plant response rating, Ryegrass, Italian [14]
50: Plant response rating, Ryegrass, Italian [3] | Ragweed plant response rating (0 to 100 scale, 0 is no effect, 100 is complete control) [15]
30: Blackgrass plant response rating [2]
20: Pigweed plant response rating [1] | Ryegrass, Italian plant response rating [3] | Plant response rating, Ragweed [4] | Wheat plant response rating [5]
90: Barnyardgrass plant response rating [6] | Plant response rating, Barnyardgrass [6] | Plant response rating, Foxtail, Giant [9] | Pigweed plant response rating (0 to 100 scale, 0 is no effect, 100 is complete control) [13] | Plant response rating, Barnyardgrass [16] | Plant response rating, Foxtail, Giant [18]
